Values joined by “and” are separate entries in the source; they are usually repeats but may differ in a detail not shown here. Equal entries are not always repeated. “Also recorded” adds a separate entry of the source. Where two headings read alike, the source gives them in different places.
Legend:
[1] = Counterscreen: AzMC fluorescence signal generated by the H2S donor GYY4137; settings: mean ± SEM, n = 3
[2] = molecular target: T1, Recombinant full length human CBS (Homo sapiens, UniProt P35520); assay: AzMC fluorescence assay of CBS-derived H2S production; type: biochemical; settings: for % inhibition of CBS-induced AzMC fluorescence: copper compounds; for % inhibition of CBS-induced AzMC fluorescence / Confirmation (% inhibition of CBS-induced AzMC fluorescence): mean ± SEM, n = 3
T1 sequence (P35520 1-551): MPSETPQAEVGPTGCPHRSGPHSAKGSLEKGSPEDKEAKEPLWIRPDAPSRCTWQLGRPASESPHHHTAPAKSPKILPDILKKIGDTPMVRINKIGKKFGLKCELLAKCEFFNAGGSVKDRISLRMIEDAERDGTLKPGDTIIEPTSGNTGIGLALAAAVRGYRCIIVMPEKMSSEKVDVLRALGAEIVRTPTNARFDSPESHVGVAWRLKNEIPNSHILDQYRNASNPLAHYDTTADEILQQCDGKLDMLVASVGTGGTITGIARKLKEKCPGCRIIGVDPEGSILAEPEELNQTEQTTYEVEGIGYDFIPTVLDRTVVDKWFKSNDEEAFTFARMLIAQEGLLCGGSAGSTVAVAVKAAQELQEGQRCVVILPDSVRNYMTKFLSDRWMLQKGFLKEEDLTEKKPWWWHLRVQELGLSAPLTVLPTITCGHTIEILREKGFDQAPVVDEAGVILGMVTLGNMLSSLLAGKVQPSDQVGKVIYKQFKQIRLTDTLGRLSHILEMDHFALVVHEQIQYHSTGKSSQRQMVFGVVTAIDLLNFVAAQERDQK

[3] = molecular target: T1, Recombinant full length human CBS; assay: Methylene blue assay of CBS-derived H2S; type: biochemical; settings: read-out: % inhibition of CBS-induced methylene blue signal
HCT116 cells = assay: Cell proliferation, xCELLigence system; type: cell-based, human; settings: Cell Index, 48 h, concentration in the value
[4] = read-out: IC50, inhibition of recombinant CBS (CBS-induced AzMC fluorescence), cell-free, 2 mM L-cysteine and homocysteine
[5] = read-out: Confirmation (% inhibition of CBS-induced AzMC fluorescence), 30 μM, mean ± SEM, n = 3
[6] = read-out: Initial screen (% inhibition of CBS-induced AzMC fluorescence), 30 μM
[7] = read-out: Confirmation (% inhibition of CBS-induced AzMC fluorescence)
[8] = read-out: Initial screen (% inhibition of CBS-induced AzMC fluorescence)
[9] = read-out: % inhibition of recombinant CBS activity

Row | Compound | Confirmation (% inhibition of GYY4137-induced AzMC fluorescence) ([1]; 30 μM) | inhibition at 30 µM [2, 5] | inhibition at 30 µM [2, 6] | Initial screen (% inhibition of CBS-induced AzMC fluorescence) ([2]; 30 μM) | Confirmation (% inhibition of CBS-induced AzMC fluorescence) ([2]; 30 μM) | other results
1 | CC(=O)[O-].CC(=O)[O-].[Cu+2] [CuAc, copper(II) acetate] | – | – | – | – | – | % inhibition of GYY4137-induced AzMC fluorescence ([1]; copper compounds, 0.1 μM): 2 ± 2%; % inhibition of GYY4137-induced AzMC fluorescence ([1]; copper compounds, 0.3 μM): 12 ± 1%; % inhibition of GYY4137-induced AzMC fluorescence ([1]; copper compounds, 1 μM): 17 ± 1%; % inhibition of CBS-induced AzMC fluorescence ([2]; 0.1 μM): 39 ± 1%; % inhibition of CBS-induced AzMC fluorescence ([2]; 0.3 μM): 66 ± 1%; % inhibition of CBS-induced AzMC fluorescence ([2]; 1 μM): 92 ± 1%; IC50 [2, 4]: ~200 nM
2 | Cc1cc2nc3c(=O)[nH]c(=O)nc-3n(C)c2cc1C=O [Ro-08-2750, 2,3,4,10-Tetrahydro-7,10-dimethyl-2,4-dioxobenzo[g]pteridine-8-carboxaldehyde] | 69 ± 8% | 59 ± 3% | 55% | – | – | –
3 | CC(=O)[O][Hg][c]1ccccc1 [Phenylmercuric acetate] | 59 ± 2% and 32 ± 4% | – | – | 69% and 52% | 50 ± 6% and 29 ± 4% | –
4 | O=C1C(SCCO)=C(SCCO)C(=O)c2ccccc21 [NSC 95397, 2,3bis[(2-Hydroxyethyl)thio]-1,4-naphthoquinone] | 58 ± 1% | 58 ± 8% | 68% | 70% | 59 ± 8% | –
5 | O=C(O)C1=CC(=C(c2ccc(O)c(C(=O)O)c2)c2ccc(O)c(C(=O)O)c2)C=CC1=O [Aurintricarboxylic acid] | −2 ± 1% | 87 ± 1% | 59% | – | – | inhibition at 10 µM [3]: 38 ± 2%; inhibition at 30 µM [3]: 61 ± 1%; inhibition at 100 µM [3]: 72 ± 1%; Effect on HCT116 cell proliferation (words) (HCT116 cells): did not inhibit cell proliferation at 10–100 μM; also recorded: at 300 μM increased cell proliferation; Effect on HCT116 cell proliferation (words) (HCT116 cells; listed as aurintricarboxylic acid): stimulated cell proliferation at 300 μM; % inhibition of GYY4137-induced AzMC fluorescence ([1]; 10 μM): −3 ± 2%; % inhibition of GYY4137-induced AzMC fluorescence ([1]; 100 μM): 6 ± 1%; IC50 [2]: ~3000 nM; inhibition at 10 µM ([2]; read-out: % inhibition of CBS-induced AzMC fluorescence, 10 μM, mean ± SEM, n = 3): 72 ± 1%; inhibition at 100 µM ([2]; read-out: % inhibition of CBS-induced AzMC fluorescence, 100 μM, mean ± SEM, n = 3): 94 ± 1%
6 | C[C@@](Cc1ccc(O)c(O)c1)(NN)C(=O)O [Carbidopa] | – | – | – | – | – | inhibition at 100 µM ([2]; read-out: % inhibition of recombinant CBS activity, 100 μM, standard assay conditions, freshly dissolved): 6%
7 | COC1=C(OC)C(=O)c2ccccc2C1=O [2,3-Dimethoxy-1,4-naphthoquinone] | 51 ± 4% | 53 ± 1% | 49% | – | – | –
8 | NC(=O)N/N=C/c1ccc([N+](=O)[O-])o1 [Nitrofurazone] | 48 ± 5% | 54 ± 2% | 52% | – | – | –
9 | CC(C)/N=c1\cc2n(-c3ccc(Cl)cc3)c3ccccc3nc-2cc1Nc1ccc(Cl)cc1 [Clofazimine] | 28 ± 5% | 30 ± 7% | 47% | – | – | –
10 | Chlorophyllide Cu complex Na salt | 78 ± 3% | – | – | 80% | 97 ± 1% | Initial screen (% inhibition of CBS-induced AzMC fluorescence) ([2]; 30 μM, listed as Chlorophyllide cu complex Na salt): 82%
11 | N.N.N.N.N.N.N.N.N.N.N.N.N.N.[Cl-].[Cl-].[Cl-].[Cl-].[Cl-].[Cl-].[O-2].[O-2].[Ru+3].[Ru+3].[Ru+4] [Ruthenium red] | 72 ± 3% | – | – | 72% | 72 ± 6% | –
12 | Cc1cc(/C=C/c2ccc3cc(N(C)C)ccc3[n+]2C)c(C)n1-c1ccccc1 [Pyrvinium pamoate] | 36 ± 3% | – | 49% | – | – | –
13 | NC(N)=NC(=O)c1nc(Cl)c(N2CCCCCC2)nc1N [5-(N,N-hexamethylene)amiloride] | 54 ± 4% | – | – | 72% | 58 ± 3% | –
14 | O=[N+]([O-])[O-].O=[N+]([O-])[O-].[Cu+2] [Cu(NO2)2, copper(II) nitrate] | – | – | – | – | – | IC50 [2, 4]: ~200 nM
15 | O=Nc1ccc(O)c2ncccc12 [NSC 3852, 5-Nitroso-8-quinolinol] | 47 ± 5% | 48 ± 5% | 58% | – | – | –
16 | Cc1cc(C(C#N)c2ccc(Cl)cc2)c(Cl)cc1NC(=O)c1cc(I)cc(I)c1O (stereo not shown) [Closantel] | 31 ± 2% | – | – | – | – | inhibition at 30 µM [2, 7]: 25 ± 5%; inhibition at 30 µM [2, 8]: 43%
17 | COc1cc2cc3c4c(cc(OC)c(OC)c4c2cc1OC)CCN3C [Dehydroglaucine] | – | – | – | – | – | Confirmation (% inhibition of GYY4137-induced AzMC fluorescence) ([1]; 17 μM): 57 ± 8 (17 μM) %; Initial screen (% inhibition of CBS-induced AzMC fluorescence) ([2]; 17 μM): 62% (17 μM); Confirmation (% inhibition of CBS-induced AzMC fluorescence) ([2]; 17 μM): 82 ± 4 (17 μM) %
18 | O=C1C=CC(=O)c2c(O)cccc21 [Juglone] | 61 ± 3% | – | – | – | – | –
19 | N#C/C(=C\c1ccc(O)c(O)c1)C(=O)NCCCNC(=O)/C(C#N)=C/c1ccc(O)c(O)c1 [Tyrphostin AG 537] | 48 ± 2% | – | – | 49% | 42 ± 1% | –
20 | O=C(N/N=C/c1ccc([N+](=O)[O-])o1)c1ccc(O)cc1 [Nifuroxazide] | 50 ± 2% | 55 ± 4% | 48% | – | – | –
21 | O=S(=O)([O-])c1cc(N=C=S)ccc1C=Cc1ccc(N=C=S)cc1S(=O)(=O)[O-].[Na+].[Na+] [DIDS, 4,4′-diisothiocyanostilbene-2,2′-sufonic acid sodium salt] | 56 ± 5% | – | – | 69% | 58 ± 4% | –
22 | Verteporfin | 38 ± 5% | – | – | 69% | 41 ± 5% | –
23 | CC1=C(C2=C(C)C(=O)c3c(c(C=O)c(O)c(O)c3C(C)C)C2=O)C(=O)c2c(C=O)c(O)c(O)c(C(C)C)c2C1=O [Gossypolone] | – | – | – | – | – | Confirmation (% inhibition of GYY4137-induced AzMC fluorescence) ([1]; 12 μM): 25 ± 4 (12 μM) %; inhibition at 12 µM [2, 7]: 30 ± 5%; inhibition at 12 µM [2, 8]: 57%
24 | NNCc1cccc(O)c1 [3-hydroxybenzylhydrazine] | – | – | – | – | – | inhibition at 10 µM [2, 9]: 24%; inhibition at 30 µM [2, 9]: 37%; inhibition at 100 µM [2, 9]: 68%
25 | CC(=O)[C@H]1CC[C@H]2[C@@H]3CCC4=CC(=O)CC[C@]4(C)[C@H]3CC[C@]12C [Progesterone] | 64 ± 1% | 75 ± 3% | 68% | – | – | –

Source: publication PMC5107130 (Pharmacological Research, 2016)
